Patent publication US6723702B2, “Use of relaxin treat diseases related to vasoconstriction” (RAS Medical, Inc., priority 2000, dated 2004)

Columns and labels:
[1] = Serum rhRLX, quantitative sandwich immunoassay (Example 1); assay type: in vivo, rat; details: osmotic minipump 4 μg/hour for 5 days, 17 rats, mean±SEM
Experimental: One milliliter of blood was obtained from the rats administered rhRLX for 5 days at the end of the renal function measurements. The levels of rhRLX in serum were then measured in a quantitative sandwich immunoassay. Unemori et al. (1996) J. Clin. Invest. 98:2739-2745. Briefly, wells of a 96-well microtiter plate (Maxisorp Immunomodules, Nunc, Inc., Naperville, Ill.) were coated overnight with affinity purified anti-rhRLX rabbit polyclonal antibody. Sera were diluted in phosphate buffered saline containing Tween 20, Thimerosal, bovine serum albumin (Sigma Chemical Co., St. Louis, Mo.) and normal goat IgG (Organon Teknika-Cappel, Durham, N.C.), and 100 μl were added to wells in duplicate. […] After an appropriate incubation period at room temperature, the wells were washed again, and 100 μl of a tetramethylbenzidine solution was added to each well. After color development, the reaction was stopped, absorbances at 450/630 nm were measured, and relaxin concentrations in the sera were determined by entering data into a four-parameter logistic curve-fitting program.

[2] = test system: Rat aortic adventitial fibroblasts; assay: Collagen and fibronectin expression by adventitial fibroblasts; assay type: cell-based; details: rhRlx 10 ng/ml
Experimental: Aortic adventitial fibroblasts from normal adult Sprague/Dawley rats were explanted by carefully dissecting the adventitia away from the media and culturing 1 mm^3 pieces in Dulbecco's modified Eagles Medium (DMEM), plus 10% bovine fetal calf serum. When cultures were confluent, fibroblasts were dispersed with trypsin and passaged once prior to use in experiments. Fibroblasts were seeded at 10^5 cells/cm^2 in DMEM+10% FBS in 48-well plates for experiments and assayed for collagen and fibronectin expression, as previously described (Unemori et al. (1996) J. Clin. Invest. 98:2739-2745). […] Half of the cultures were also treated simultaneously with 10 ng/ml of rhRlx. Proteins were biosynthetically labeled with ^3H-proline (25 μCi/ml) (Amersham Corp., Arlington Heights, Ill.), in the presence of ascorbate (50 μg/ml) and β-aminopropionitrile (80 μg/ml), and conditioned media collected 24 hours later. Media were electrophoresed on SDS-PAGE, and the density of collagen and fibronectin bands was determined by densitometric scanning using a digital imaging system (Alpha Innotech Corp, San Leandro, Calif.).

endothelial cells = assay: Binding of 32P-labelled relaxin to endothelial cells
db/db mice = assay: Full thickness wound healing in db/db mice; assay type: in vivo, mouse
Experimental: To determine whether rhRlx would improve healing in this model of impaired healing, standardized full thickness (1.5 cm×1.5 cm) wounds were made on the back of db/db mice (Jackson Laboratories, Bar Harbor, Me.). Mice were treated continuously for 21 days with rhRlx via a subcutaneously implanted Alzet pump at a dose of either 0.1 mg/kg/day or 0.2 mg/kg/day. Wound areas were measured in the course of the study. Healing is presented as wound area on day 14 relative to the original size of the wound on day 0 and is calculated as: % of original wound area=[Area on day 14/area on day 0]×100. […] Wound closure was expressed as “% of original wound area.” There were 8-20 animals per group. Wound closure was 91.4% in control group vs. 64% in the relaxin-treated group (p<0.05 by Student-Newman-Kuels test). The differences in the extent of wound healing were small among vehicle control and low dose of rhRlx treatment as well as PDGF (5 μg/wound/day for 5 days) treated mice.
At day 21-post surgery, the wounds were also excised and fixed in formalin prior to paraffin embedding. Sections from the middle of the wound were stained with Masson's trichrome and evaluated by two investigators. […] Inflammatory cell accumulation was present at the wound edges.
Neovascularization is a key component of granulation tissue formation. New blood vessel formation is stimulated by a variety of growth factors including bFGF, and VEGF. […] Immunohistochemical staining of the midsection of full thickness wounds using polyclonal antibody to von Willebrand factor VIII-related antigen was used to identify new blood vessels in the wounds.

[3] = test system: small mesenteric arteries; assay: Myogenic reactivity of small mesenteric arteries; assay type: in vivo, rat; details: female rats chronically administered rhRLX (FIG. 15)
rats = assay: Metabolic cage studies; assay type: in vivo, rat
Experimental: Six rats were individually housed in Nalgene metabolism cages (Rodent Metabolism Cages for 150-300 g rats, VWR Scientific). Water and food were provided ad libidum. After 5-7 days of habituation, two baseline 24-hour urine collections were obtained. Then, an osmotic minipump containing purified porcine RLX was implanted (4 μg/hour). […] Food and water intake, as well as urinary flow rate were measured by gravimetric technique. The urinary excretion of sodium, cyclic guanosine monophosphate, and NOx were also determined. The measurements made during the two baseline collections were averaged, as were the measurements made during the three post-relaxin collections.
Plasma osmolality was measured using a freezing-point depression instrumentation osmometer (Model 3MO, Advanced Instruments, Needham Heights, Mass.). Plasma and urine IN and PAH were assayed by standard techniques. Urinary sodium concentration was measured by ion selective electrode (Sodium-Potassium Chemistry Module, Beckman Instruments, Inc., Brea, Calif.). Urinary cGMP was determined by specific radioimmunoassay as previously described. Conrad and Vernier (1989) Am. J. Physiol. 257:R847-R853. Urinary NOX was measured by reduction of nitrate to nitrite, the latter determined by the Griess reaction which produces a calorimetric product measured at 540 nm (Nitrate/Nitrite Colorimetric Assay Kit, Cayman Chemical, Ann Arbor, Mich.).

rhRLX: recombinant human relaxin, identical in amino acid sequence to the product of the human H2 gene; A chain of 24, B chain of 29 amino acids
serum concentration of rhRLX [1]: 28.1 ± 4.8 ng/mL
decrease of TGF-β-induced fibronectin over-expression [2]: 28±6%
inhibition of TGF-β-induced collagen over-expression [2]: 21±5%
binding of 32P-labelled relaxin to endothelial cells (endothelial cells): could not be detected
Wound closure, % of original wound area (db/db mice; 0.2 mg/kg/day, day 14): 64%
staining for von Willebrand factor VIII-related antigen (new blood vessels) (db/db mice; compared to wounds of vehicle treated animals): stronger positive staining
wound histology, Masson's trichrome (db/db mice; day 21-post surgery): thick, cellular and vascular granulation tissue
differences in the extent of wound healing vs vehicle control (db/db mice; low dose of rhRlx (0.1 mg/kg/day)): small
myogenic reactivity [3]: reduced myogenic reactivity

Porcine RLX: lyophilized, purified porcine relaxin (Sherwood and O'Byrne 1974), dissolved in Ringer's solution
Food intake (rats; Baseline): 13.2 ± 1.0 g
Urinary NOx excretion (rats; Baseline): 4.8 ± 0.5 μmole/24hours
Urinary cGMP excretion (rats; Baseline): 32.2 ± 1.9 nmole/24 hours
Urinay sodium excretion (rats; Baseline): 438.8 ± 34.4 μEq/24hours
Urine output (rats; Baseline): 9.1 ± 1.7 ml/24 hours
Water intake (rats; Baseline): 19.1 ± 2.7 mL
Food intake (rats; Day 2 of RLX 4 μg/hour s.c.): 15.5 ± 1.5 g
Urinary NOx excretion (rats; Day 2 of RLX 4 μg/hour s.c.): 6.0 ± 1.0 μmole/24hours
Urinary cGMP excretion (rats; Day 2 of RLX 4 μg/hour s.c.): 26.5 ± 2.5 nmole/24 hours
Urinay sodium excretion (rats; Day 2 of RLX 4 μg/hour s.c.): 800.2 ± 77.2 μEq/24hours
Urine output (rats; Day 2 of RLX 4 μg/hour s.c.): 11.4 ± 2.2 ml/24 hours
Water intake (rats; Day 2 of RLX 4 μg/hour s.c.): 20.1 ± 3.4 mL
Food intake (rats; Day 5 of RLX 4 μg/hour s.c.): 16.7 ± 1.0 g
Urinary NOx excretion (rats; Day 5 of RLX 4 μg/hour s.c.): 5.9 ± 0.7 μmole/24hours
Urinary cGMP excretion (rats; Day 5 of RLX 4 μg/hour s.c.): 28.6 ± 3.8 nmole/24 hours
Urinay sodium excretion (rats; Day 5 of RLX 4 μg/hour s.c.): 477.8 ± 57.9 μEq/24hours
Urine output (rats; Day 5 of RLX 4 μg/hour s.c.): 8.8 ± 0.9 ml/24 hours
Water intake (rats; Day 5 of RLX 4 μg/hour s.c.): 23.6 ± 3.3 mL
Food intake (rats; Post-relaxin day 4-18): 15.3 ± 0.5 g
Urinary NOx excretion (rats; Post-relaxin day 4-18): 6.1 ± 0.9 μmole/24hours
Urinary cGMP excretion (rats; Post-relaxin day 4-18): 32.7 ± 3.8 nmole/24 hours
Urinay sodium excretion (rats; Post-relaxin day 4-18): 480.69 ± 54.4 μEq/24hours
Urine output (rats; Post-relaxin day 4-18): 9.1 ± 1.1 ml/24 hours
Water intake (rats; Post-relaxin day 4-18): 19.1 ± 2.6 mL
